Results published in article PMC5435364 (PLoS Pathogens, 2017).

Test system: Qa-1
Assay: Qa-1/peptide binding assay (flow cytometry-based competition with biotinylated Qdm)
Parameters: species or system mouse
Details: Qa-1 transfected HeLa cells, 0.5 μM biotinylated Qdm + 5 or 10 μM unlabeled competing peptide, 1.5 hours at 4°C, Fig 2A

Substance: OT-I: negative control OT-I peptide
- Competition with bio-Qdm for binding to Qa-1 (decrease in streptavidin-APC staining): unable to do so
